Data on seven molecules can be found in article PMC12344683, “N-alkyl and N-benzyl indoles are anti-SARS-CoV-2 agents and nsp13 inhibitors” (Journal of Enzyme Inhibition and Medicinal Chemistry, 2025).

In the assay the test system is SARS-CoV-2. The experiment in a line: microbe, parasite or virus in culture. Type of assay: cell-based, SARS-CoV-2 variant omicron XBB.1.16.11. The settings on record: for antiviral activity against SARS-CoV-2 (in words): up to 50 μM.
[1] abbreviates: Severe acute respiratory syndrome coronavirus 2, Vero C1008, read-out: EC50, concentration required to reduce the SARS-CoV-2 replication in Vero cells by 50%.
Where [2] appears, read: Severe acute respiratory syndrome coronavirus 2, plaque assay, SARS-CoV-2 in Vero cells, read-out: 95% confidence interval (CI) of EC50.

The structures appear in SMILES notation. Where two headings read alike, the source gives them in different places.

As for `CCOC(=O)/C(O)=C/C(=O)/C=C/c1cn(Cc2ccc(OC(F)(F)F)cc2)c2ccccc12` [6e], under setting [1], the EC50 is 50 µM. Where the note is “plaque assay”, the “antiviral activity against SARS-CoV-2 (in words)” value was “low activity”.
With `O=C(/C=C(\O)C(=O)O)/C=C/c1cn(Cc2ccc(F)cc2)c2ccc(Cl)cc12` [5i, (2Z,5E)-6-(5-chloro-1-(4-fluorobenzyl)-1H-indol-3-yl)-2-hydroxy-4-oxohexa-2,5-dienoic acid], the EC50 was 6.77 ± 1.17 µM under setting [1] and 5.69 to 8.03 µM under setting [2].
As to `CCOC(=O)/C(O)=C/C(=O)c1cn(Cc2ccc(F)cc2)c2ccccc12` [8d, Ethyl (Z)-4-(1-(4-fluorobenzyl)-1H-indol-3-yl)-2-hydroxy-4-oxobut-2-enoate], the EC50 under setting [1] is greater than 50 µM. The “antiviral activity against SARS-CoV-2 (in words)” value (plaque assay) was “not showed any antiviral activity up to the maximum concentration tested”.
On to `N#Cc1ccc(Cn2cc(/C=C/C(=O)/C=C(\O)C(=O)O)c3ccccc32)cc1` [5g, (2Z,5E)-6-(1-(4-cyanobenzyl)-1H-indol-3-yl)-2-hydroxy-4-oxohexa-2,5-dienoic acid], for which the EC50 under setting [1] was 14.5 ± 4.2 µM and the EC50 under setting [2] was in the range of 10.9 to 19.3 µM.
Taken in the same sequence, the figures for `O=C(/C=C(\O)C(=O)O)/C=C/c1cn(Cc2ccc(OC(F)(F)F)cc2)c2ccccc12` [5e] were 9.4 ± 2.26 µM and 7.36 to 11.9 µM.
On to `CC(C)c1ccc(Cn2cc(/C=C/C(=O)/C=C(\O)C(=O)O)c3ccccc32)cc1` [5c], for which the EC50 by setting is: under setting [1], 9.41 ± 0.91 µM; under setting [2], 8.54 to 10.4 µM.
Taken in the same sequence, the figures for `CC(C)=Cn1cc(/C=C/C(=O)/C=C(\O)C(=O)O)c2ccccc21` [9c, (2Z,5E)-2-hydroxy-6-(1-(2-methylprop-1-en-1-yl)-1H-indol-3-yl)-4-oxohexa-2,5-dienoic acid] were 4.23 ± 0.96 µM and 3.33 to 5.26 µM.
